≈ marks a conversion by molar mass, not a printed value.

The values that follow come from patent US9669047B2, “Method for producing polyphenol composition” (KAO CORPORATION, priority 2012, dated 2017).

The nature of data set [1]: Solubility of the raw polyphenols (A) and (B) in water at 25° C. The conditions noted are these: for Solubility of (B) in water (25° C.): water-soluble polyphenol (B) alone; for Solubility of (A) in water (25° C.): hardly water-soluble polyphenol (A) alone.
Description: (§1) The term “hardly water-soluble polyphenol” used in the present invention refers to the one having a poor solubility in water. […] The solubility represents herein a gram number of the solute being dissolved in 1 L of the solution with a unit of [g/L].
A short description of a further data set: physchem. As to conditions: 25 °C, water.

Description for physchem: as §1

As for `O=C(O[C@@H]1Cc2c(O)cc(O)cc2O[C@@H]1c1cc(O)c(O)c(O)c1)c1cc(O)c(O)c(O)c1` [Catechin, epigallocatechin gallate], the “Solubility of (B) in water (25° C.)” value in data set [1] is on record as 15 g/L.

Turning to `O=c1oc2c(O)c(O)cc3c(=O)oc4c(O)c(O)cc1c4c23` [Ellagic acid, ellagic acid], the solubility – broadly, how much of the substance goes into solution per volume – in data set [1] (25 °C) is 4 µg/mL (≈ 13.2 µM). Also, in data set [1], the “Solubility of (A) in water (25° C.)” value was determined as 4 µg/mL.

For the compound `COc1ccc([C@@H]2CC(=O)c3c(O)cc(O[C@@H]4O[C@H](CO[C@@H]5O[C@@H](C)[C@H](O)[C@@H](O)[C@H]5O)[C@@H](O)[C@H](O)[C@H]4O)cc3O2)cc1O` [Hesperidin, hesperidin], in data set [1], the “Solubility of (A) in water (25° C.)” value is 50 µg/mL.

Compound `c1cc2c(cc1[C@H]1OC[C@H]3[C@@H]1CO[C@@H]3c1ccc3c(c1)OCO3)OCO2` [Sesamin, sesamin] had a solubility in the data set “physchem” of 0.14 µg/mL (≈ 0.395 µM).

Consider glucosylhesperidin, for which, in data set [1], the “Solubility of (B) in water (25° C.)” value is recorded as ≥ 300 or g/L.
